Results reported in US9096543B2, “Nuclear transport modulators and uses thereof” (Karyopharm Therapeutics Inc., priority 2012, dated 2015).
“Also recorded” adds a separate entry of the source.

How the values were obtained:
[1] = tested on: CCI brain injury; assay: Brain injury assessment after CCI (visual inspection, NeuN cell density, immunofluorescence); format: in vivo, rats; conditions: for cell-to-gray matter (CG) area coefficient, compared to sham: NeuN labeling
Protocol: Quantitative measures of cell density were collected from anti-NeuN immunolabeled subsections from approximately 2-3 mm anterior to bregma. Regions of interest (ROIs) were drawn (blind to experimental condition) around Layers IV-VI in the cortical region adjacent to the injury site in CCI-treated animals or in the equivalent zone (dorsal cortex) in sham animals. An ROI of similar area was also evaluated in a ventral cortical region of the same section. Cell identification was performed using the cell counting module of Keyence BZ-II Analyzer software. […] The CCI-induced reduction in CG coefficient was mitigated by treatment with Compound 1 in the ventral cortex (−3% compared to sham; p=0.09). Although the effect of Compound 1 versus vehicle treatment in the ventral cortex is not statistically significant, it is anticipated that this effect would breach statistical significance in a larger study. No effect of Compound 1 was detected in the dorsal cortical region (−32% compared to sham) immediately adjacent to the injury site. The difference in the observed effect of Compound 1 on the ventral region versus the dorsal region may be a threshold effect related to the degree of injury, which was inversely related to the distance from the injury site. Thus, the damage to the dorsal cortical region could be too severe to be rescued by Compound 1 under these conditions.
Immunofluorescence was performed to evaluate the impact of TBI on several pathways of immune response, and to determine if Compound 1 might be mediating its neuroprotective effects via one or more of those pathways. Semi-quantitative measures of secondary injury responses were examined using immunofluorescent labeling for anti-Rat IgG (an indicator of blood-brain barrier (BBB) permeability), and TNFα (an indicator of neural inflammation). All markers were imaged at 20× magnification in the areas of the cortex surrounding the injury site in adjacent subsections within 300 μm to those used for the NeuN labeling assessments. For each label, a target ROI was outlined within Layers IV-VI adjacent to the injury site (or an equivalent region of dorsal cortex for sham animals), and a reference ROI was collected from the same laminae in ventral cortex. Normalized fluorescence intensity was assessed in each of the two ROIs. For all labels, the ventral cortex reference site was determined not to be different between groups (p>0.5); therefore, the percent target to reference value (IF) was determined.

[2] = tested on: COX-2; assay: COX-2 protein expression in HeLa cells (immunoblot); format: cell-based; conditions: 1 μM Compound 1 + 20 ng/ml TNFα, 24 hours
Protocol: HeLa cells were plated in a 6-well culture dish (5×10^5 cells/well) with EMEM medium (Lonza) supplemented with 10% heat-inactivated fetal bovine serum (Invitrogen). Two of the wells of the plate were pre-treated with 1 μM of Compound 1 for 30 minutes, at which time one of the wells was exposed to 20 ng/ml TNFα (Preprotech) for 24 hours. The other wells were treated with either 20 ng/ml TNFα or nothing for 24 hours. Following the treatment, whole-cell lysates were generated from the cells by lysis with RIPA buffer supplemented with protease and phosphatase inhibitors (Roche). Immunoblot detection of COX-2 protein was performed using an anti-COX-2 antibody (Cayman). Signal intensity for the COX-2 protein was normalized to that of beta-actin (Santa Cruz) for each sample and plotted graphically as arbitrary intensity units.

[3] = tested on: IMQ-induced psoriasis; assay: Imiquimod (IMQ)-induced dermal inflammation/psoriasis model (Study 2); format: in vivo, BALB/c mice; conditions: Compound 2 2.5 mg/kg
Protocol: Forty (40) male BALB/c mice (Biological E Limited, Hyderabad (CPCSEA registration number: 36/99/CPCSEA)) were divided into four (4) groups consisting of ten (10) mice each. Animals were randomized based on their body weight. The groups were designated as Group-I (Nave), Group-II (IMQ; vehicle (PEG 400 and HPBCD)), Group-III (IMQ; Compound 2 (2.5 mg/kg)) and […] (IMQ; cyclophosphamide (10 mg/kg)).
A small area on the dorsum of each mouse was shaved, ensuring that these areas were of equal size/area. Psoriasis was induced in Groups II to IV by topical application of 50 mg of IMQ cream daily from Day 1 to Day 6 on the dorsum of the animals. On Day 1 and Day 2 of the study, four hours after topical application of IMQ, Compound 2 or positive control (cyclophosphamide) or vehicle were administered to animals in pertinent groups. Of note, animals in Group II and Group III were subjected to subcutaneous injections, whereas animals in Group IV received oral administration. The Compound 2, vehicle and cyclophosphamide treatment was terminated on Day 2. These groups of animals were maintained on daily IMQ treatments until Day 6. On Day 7, the psoriasis-induced animals were re-randomized into 3 groups consisting of 10 animals each based on Cumulative Disease Activity Index (CDAI). From Day 7 to Day 9, animals received vehicle or positive control or Compound 2. Of note, on these days animals were not treated with IMQ. From Day 10 to Day 14, the animals were treated alternatively with IMQ (Days 10, 12 and 14), or vehicle, positive control or Compound 2 (Days 11, 13).
All animals were observed daily for a period of […] for gross observations, body weight and feed and water intake. On Days 1 and 2, scorings of erythema, scaling, folding and thickening of skin were recorded 2 hours after administration of vehicle/positive control/test compounds, and on Days 3 to 14 scorings were recorded 4 hours after IMQ application, or administration of positive control, vehicle or Compound 2.
Vehicle was prepared by dissolving 40 mg of HPBCD in 70.0 mL of distilled water. Compound 2 was prepared by dissolving 3.59 mg in 0.5% PVP and 0.5% Pluronic. Cyclophosphamide was prepared by dissolving 500 mg of CMC in 100 mL distilled water.
The experimental results shown in Table 10 are expressed as mean±SEM. Data was assessed using one-way ANOVA, and post hoc analysis was performed using Dunnett's test.

| SMILES | qualitative visual inspection of whole brains (damage to dorsal-medial cortical tissue) ([1]; CCI + Compound 1 6 mg/kg) | cell-to-gray matter (CG) area coefficient, compared to sham ([1]; dorsal cortical region adjacent to injury site, CCI control −45%) [%] | secondary injury responses (TNFα immunopositive cells, anti-Rat IgG immunofluorescence) ([1]; tissue surrounding the injury site) | cell-to-gray matter (CG) area coefficient, compared to sham ([1]; ventral cortex, p=0.09 vs vehicle, CCI control −30%) [%] | COX-2 protein expression [2] | body weight, food consumption and water intake [3] | rate of reduction of disease activity index compared to vehicle ([3]; 2.5 mg/kg) |
| --- | --- | --- | --- | --- | --- | --- | --- |
| CC(C)(C)C(=O)NNC(=O)/C=C\n1cnc(-c2cc(C(F)(F)F)cc(C(F)(F)F)c2)n1 [Compound 1, (Z)-3-(3-(3,5-bis(trifluoromethyl)phenyl)-1H-1,2,4-triazol-1-yl)-N′-pivaloylacrylohydrazide] | damage ranging from moderate to minimal | −32 | largely absent; also recorded: reduces secondary injury responses | −3 | decreased the amount of COX-2 protein in the presence of TNFα; also recorded: does reduce the amount of TNFα induced expression of COX-2 protein; also recorded: inhibits TNFα-induced COX-2 protein expression |  |  |
| O=C(/C=C\n1cnc(-c2cc(C(F)(F)F)cc(C(F)(F)F)c2)n1)NNC(=O)CN1CCOCC1 [Compound 2, (Z)-3-(3-(3,5-bis(trifluoromethyl)phenyl)-1H-1,2,4-triazol-1-yl)-N′-(2-morpholinoacetyl)acrylohydrazide] |  |  |  |  |  | without greatly impacting the consumption of food or water | significantly greater than that observed in animals treated with vehicle; also recorded: diminished IMQ-induced disease manifestation |
